Experimental data taken from patent publication EP2161029A1, “Composition comprising peptides” (Unilever N.V., priority 2008, dated 2010).
Peptide text beside a SMILES is read from it.

Method: The pH of simulated gastric fluid (SGF, 0.15 M NaCl, pH 2.5) was increased to 7.5 with […] (40 mM), and the following compounds were added to adjust the pH to 6.8 and simulate a duodenal-jejunal environment and create simulated small intestinal fluid (SIF): (i) a bile salt mixture containing equimolar quantities (0.125 M) of sodium taurocholate and glycodeoxycholic acid in NaHC03 (1 M), (ii) solutions of pancreatin from porcine pancreas (9 mg/mL) in water was prepared and added at approximately physiological ratios. The pH was adjusted to 6.8 with HCl (0.1 M). Peptides were dissolved in SIF at a final peptide concentration of 50 µM. Aliquots (1 mL) were prepared for sampling at different time points. Simulated intestinal digestion was carried out at 37°C, and aliquots (1 mL) were taken at 0, 5, 15, and 60 min after the start of the experiment. After peptide hydrolysis, digestive enzymes were inactivated at 95°C for 15 min and samples were cooled immediately on ice water and stored at -20 °C until further analysis.
Quantification of dipeptides derived from digestion were performed using a liquid chromatography multiple reaction ion monitoring-mass spectrometry (LC-MRM-MS) method as described van Platerink CJ, Janssen HG, Horsten R, Haverkamp J. Quantification of ACE inhibiting peptides in human plasma using high performance liquid chromatography-mass spectrometry. J Chromatogr B Analyt Technol Biomed Life Sci 2006,830:151-157. Peptide separation was performed on an Atlantis Hilic Silica column (2.1 x 150 mm, 3 µm particle size) and a Micromass Quattro-II (Milford MA, USA) with HP1100LC system (Hewlett-Packard, USA). The gradient started at 100% 0.1% trifluoro acetic acid in Milli-Q water and ended at 70% 0.1 % trifluoro acetic acid in acetonitrile. To support the ionization, a 70/30 mixture of propionic acid and propanol-2 was added postcolumn at a flow rate of 50 mL·min-1. All analyses were conducted on an Alliance 2795 HPLC (Waters, Milford MA, USA) combined with a Quattro Premier triple quadrupole mass spectrometer from the same supplier.
An intestinal stability data set consisting of 228 dipeptides was generated based on the results from the simulated digestion experiments. The area under the time - peptide concentration curve was calculated and used for further analysis and modelling. An ACE inhibitory dipeptide database consisting of 228 dipeptides was constructed.
For each peptide the relative stability (in % of initial dipeptide concentration) was plotted against time and the area under the curve (AUC) was calculated.

Structure (SMILES) | Stability observed AUC | AUC | intestinal stability (in words)
NC(N)=NCCC[C@H](N)C(=O)N[C@@H](Cc1c[nH]c2ccccc12)C(=O)O [Arg-Trp] (H-Arg-Trp-OH) | 265±10 | – | –
N[C@@H](CC(=O)O)C(=O)N[C@@H](Cc1c[nH]c2ccccc12)C(=O)O [DW] (H-Asp-Trp-OH) | – | – | high intestinal stability
C[C@H](NC(=O)CN)C(=O)O [GA, Gly-Ala] (H-Gly-Ala-OH) | – | > 5900 units | –
NCC(=O)N[C@@H](CS)C(=O)O [GC] (H-Gly-Cys-OH) | – | – | high intestinal stability
NCC(=O)N[C@@H](CC(N)=O)C(=O)O [GN] (H-Gly-Asn-OH) | – | – | high intestinal stability
CC(C)[C@H](NC(=O)CN)C(=O)O [GV, Gly-Val] (H-Gly-Val-OH) | – | > 5900 units | –
N=C(N)NCCC[C@H](NC(=O)CN)C(=O)O [Gly-Arg] (H-Gly-Arg-OH) | 4622±1283 | – | –
O=C(O)[C@H](Cc1c[nH]c2ccccc12)NC(=O)[C@@H]1CCCN1 [PW] (H-Pro-Trp-OH) | – | – | high intestinal stability
NC(=O)C[C@H](NC(=O)[C@@H](N)Cc1c[nH]c2ccccc12)C(=O)O [Trp-Asn] (H-Trp-Asn-OH) | 4812±901 | – | –
N[C@@H](Cc1c[nH]c2ccccc12)C(=O)NCC(=O)O [Trp-Gly] (H-Trp-Gly-OH) | 4280±721 | – | –
N[C@@H](Cc1c[nH]c2ccccc12)C(=O)N[C@@H](Cc1c[nH]cn1)C(=O)O [Trp-His] (H-Trp-His-OH) | 2934±800 | – | –
CC(C)[C@H](N)C(=O)N[C@@H](Cc1ccc(O)cc1)C(=O)O [Val-Tyr] (H-Val-Tyr-OH) | 373±27 | – | –

More lines, now with the values ahead:

Stability observed AUC | AUC | intestinal stability (in words) | Structure (SMILES)
240±12 | – | – | NC(=O)C[C@H](N)C(=O)N[C@@H](Cc1ccc(O)cc1)C(=O)O [Asn-Tyr] (H-Asn-Tyr-OH)
– | > 5900 units | – | N[C@@H](CC(=O)O)C(=O)N1CCC[C@H]1C(=O)O [DP, Asp-Pro] (H-Asp-Pro-OH)
4887±639 | – | most intestinal stable dipeptide | N[C@@H](CO)C(=O)N1CCC[C@H]1C(=O)O [Ser-Pro] (H-Ser-Pro-OH)
4606±129 | – | – | N[C@@H](Cc1c[nH]c2ccccc12)C(=O)N1CCC[C@H]1C(=O)O [Trp-Pro] (H-Trp-Pro-OH)
4593±1930 | – | – | C[C@H](NC(=O)[C@@H](N)Cc1ccc(O)cc1)C(=O)O [Tyr-Ala]
3384±475 | – | high stability | N[C@@H](Cc1ccc(O)cc1)C(=O)NCC(=O)O [Tyr-Gly]
4187±399 | – | – | N[C@@H](Cc1ccc(O)cc1)C(=O)N1CCC[C@H]1C(=O)O [Tyr-Pro] (H-Tyr-Pro-OH)
